SMILES strings stand for the structures. Where a name gives a salt, the structure may show the parent alone.

Assay [1] relates to THP1/LXR-Luc cells. Put plainly: THP1/LXR-Luc luciferase reporter bioassay. The class given is cell-based. To be noted: Homo sapiens, THP-1, 48 hours; for EC50: read-out: Activation of THP1/LXR-Luc cells: EC50; for Emax: relative to maximum activation of free payload 9d, read-out: Activation of THP1/LXR-Luc cells: Fold of activation. An excerpt:
The fold activation in the cell-based assays (as described in Example 68, below) was defined based on the maximum activation of the free payload 9d.
(§1) A bioassay was developed to assess the activity of LXR agonists after internalization of an agonist or of a ncADC into cells and binding to LXR, a nuclear receptor, using a commercially available LXR reporter (referred to as LXR-Luc) that contains the firefly luciferase gene under control by minimal CMV promoter and tandem repeats of the LXR transcriptional response element. For this assay, a THP1 cell line, which is a human monocytic leukaemia line, was engineered to express full length human Her2 (expressing amino acids M1 through V1255 of accession number NP_004439.2). The subsequent stable cell line was further transduced with a Cignal LXR Luc Reporter (Qiagen, Cat # CLS-7041L). The resulting stable cell line is referred to herein as THP1/Her2/LXR-Luc. The Her2 cell surface expression on THP1/Her2/LXR-Luc cell line was confirmed by FACS (data not shown).
Additionally, a THP1 cell line was transduced with a Cignal LXR Luc Reporter (Qiagen, Cat # CLS-7041L) without the addition of Her2. The resulting stable cell line is referred to herein as THP1/LXR-Luc. All of the antibodies used in the subsequent bioassays were assessed for their ability to internalize and release a payload on the bioassay cell line used.
(§2) This example assessed the ability of the LXR agonists provided herein, reference compounds, and anti-Her2 antibody-LXR ncADC to activate LXR. The samples were tested in the THP1/LXR-Luc/Her2 bioassay. For the assay, either THP1/LXR-Luc cells or THP1/LXR-Luc/Her2 cells were seeded onto white 96 well plates at 30,000 cells/well in media containing RPMI supplemented with 10% FBS and pencillin/streptomycin (complete media). Subsequently 3-fold serial dilutions of antibody drug conjugates, unconjugated antibodies, or free payloads were added to the cells at final concentration ranging from 100 nM to 0.01 nM. After 48-hour or 72-hour incubation, luciferase activity was determined after the addition of One-Glo™ reagent (Promega, Cat # E6130) to each well of cells. Relative light units (RLUs) were measured on a Victor luminometer (PerkinElmer) and the EC5o values were determined using a four-parameter logistic equation over a 10-point dose response curve (GraphPad Prism) (FIG. 15). The fold activation is calculated based on the maximum activation of the free payload 9d.

Assay [2] deals with THP1/LXR-Luc cells. As to the kind of experiment: LXR-luciferase reporter bioassay in PMA-differentiated THP1/LXR-Luc cells. The class given is cell-based, human. The following applies: for EC50: Homo sapiens, THP-1, 48 h, read-out: EC50; for S/N (signal to noise, ratio of RLU of standard one over RLU of standard eight): luciferase activity. An excerpt: To test the efficacy of anti-MSR1 antibody-LXR conjugates in vitro, a cell-based LXR responsive luciferase reporter assay was developed. To generate the assay cell line, a LXR regulated luciferase reporter gene [Cignal Lenti LXR Reporter (luc) kit (Qiagen, Cat # CLS-001L)] was transduced into THP1 cells, and cells were selected for two weeks in puromycin. The lentivirus expresses the firefly luciferase gene under the control of a minimal CMV promoter and tandem repeats of the LXR transcriptional response element. The resulting cell line is referred to as THP1/LXR-Luc cells.
THP1/LXR-Luc cells were seeded onto 96 well plates at 40,000 cells/well in media containing RPMI supplemented with 10% FBS and pencillin/streptomycin and subsequently differentiated with 200 nM Phorbol Myristate Acetate (PMA) for 3 days. After the 3-day differentiation period, three-fold serial dilutions of antibody drug conjugates, unconjugated antibodies, or free payloads in fresh media were added to the cells at final concentration ranging from 100 nM to 0.01 nM. Media alone served as a blank control. Forty-eight hours later, luciferase activity was determined after the addition of One-Glo™ reagent (Promega, Cat # E6130) to each well. Relative light units (RLUs) were measured on a Victor luminometer (PerkinElmer) and EC50 values were determined using a four-parameter logistic equation over a 10-point dose response curve (GraphPad Prism). The signal to noise (S/N) was determined by calculating the ratio of RLU of standard one over RLU of standard eight for each of the unconjugated anti-MSR1 antibodies or free payloads. “LP #” represents a linker-payload for which the corresponding structures are provided elsewhere herein, and “P #” represents a payload for which the corresponding structures are provided elsewhere herein.
(In a reporter assay the amount or activity of a reporter protein is the signal.)

The target of assay [3] is T1, LXR alpha (Homo sapiens, UniProt Q13133).
T1 construct: LXR alpha or beta LBD-GST; purchased ThermoFisher PV4655
T1 sequence (Q13133 209-447 limits assumed): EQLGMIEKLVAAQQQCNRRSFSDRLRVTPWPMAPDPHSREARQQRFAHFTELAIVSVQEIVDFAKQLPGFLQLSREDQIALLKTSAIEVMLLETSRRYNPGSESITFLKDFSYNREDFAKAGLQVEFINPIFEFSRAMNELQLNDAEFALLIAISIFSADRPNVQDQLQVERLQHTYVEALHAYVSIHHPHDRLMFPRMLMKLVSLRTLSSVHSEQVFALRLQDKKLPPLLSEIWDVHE
As to the kind of experiment: LanthaScreen TR-FRET LXR alpha Coactivator Assay (cell-free binding). The following applies: TR-FRET, 12-point curve; read-out: Cell free binding LXRα IC50. As to the method: (§3) To evaluate the ability of novel LXR agonists to bind to the LXR alpha and beta receptor, a cell-free binding assay was performed using a LanthaScreen TR-FRET LXR alpha Coactivator Assay Kit (ThermoFisher, Cat # PV4655) and LXR beta Coactivator Assay Kit (ThermoFisher, Cat # PV4658). The assay was performed according to the manufacturer's instructions. Briefly, a 3-fold serial dilution of LXR agonists were prepared in 100% DMSO starting at 100 μM (100× of final). Serial dilutions were further diluted 50-fold in nuclear receptor buffer F with 5 mM DTT, and transferred to a 384-well assay plate. Next, Fluorescein-D22, LXR alpha or beta LBD-GST, and Tb anti-GST antibody was sequentially added to 384-well assay plate. The plate was then incubated at rt for 2.5 hours while being protected from light. […] The IC50 values were determined using a four-parameter logistic equation over a 12-point response curve (GraphPad Prism).
A general note: In TR-FRET formats the signal depends on donor and acceptor labels being close together.

Assay [4] concerns the target T2, LXR beta (Homo sapiens, UniProt P55055).
T2 construct: LXR alpha or beta LBD-GST; purchased ThermoFisher PV4658
T2 sequence (P55055 222-460 limits assumed): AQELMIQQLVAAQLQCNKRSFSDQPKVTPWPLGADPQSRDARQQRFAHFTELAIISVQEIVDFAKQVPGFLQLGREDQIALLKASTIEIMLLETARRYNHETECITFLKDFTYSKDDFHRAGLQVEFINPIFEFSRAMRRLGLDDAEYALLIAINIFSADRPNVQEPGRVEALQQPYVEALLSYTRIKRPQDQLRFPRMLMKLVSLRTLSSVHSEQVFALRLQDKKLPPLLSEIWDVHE
As to the kind of experiment: LanthaScreen TR-FRET LXR beta Coactivator Assay (cell-free binding). The following applies: TR-FRET, 12-point curve; read-out: Cell free binding LXRβ IC50. As for the experimental part: as §3

Assay [5] relates to THP1/LXR-Luc/Her2 cells. Put plainly: THP1/LXR-Luc/Her2 luciferase reporter bioassay. The following applies: Homo sapiens. The class given is cell-based.
Source text: as §1, §2

The mark [6] stands for this setting: 48-hour time point, stimulation of THP1/Luc cells.
Where [7] appears, read: PMA-differentiated THP1/LXR-Luc cells, 48 hours, luciferase activity (One-Glo), 10-point dose response 100 nM to 0.01 nM.
Where [8] appears, read: PMA-differentiated THP1/LXR-Luc cells, 48 hours.

On to `C[C@]1(C(=O)NC(=O)[C@@]2(C)CCC[C@]3(C)c4cc(NC(=O)[C@@H](N)CCC(=O)O)ccc4CC[C@@H]23)CCC[C@]2(C)c3cc(O)ccc3CC[C@@H]12` [Compound 9o, (4S)-4-Amino-4-{[(4bS,8S,8aR)-8-{[(1S,4aS,10aR)-6-hydroxy-1,4a-dimethyl-1,2,3,4,4a,9,10,10a-octahydrophenanthrene-1-carbonyl]carbamoyl}-4b,8-dimethyl-4b,5,6,7,8,8a,9,10-octahydrophenanthren-3-yl]carbamoyl}butanoic acid; Trifluoroacetic Acid Salt], for which the EC50 in assay [1] is not above 0.001 µM; in assay [2] (setting [6]) it was 0.00037 to 0.00209 µM; in assay [2] (setting [7]) it was 0.00037 µM. Also, the Emax in assay [1] is more than 75%. Further, the “S/N (signal to noise, ratio of RLU of standard one over RLU of standard eight)” value in assay [2] (setting [8]) is reported as 8.3. Moreover, the IC50 is 0.01 to 0.1 µM in assay [3] and less than 0.01 µM in assay [4].

For the compound `C[C@]1(C(=O)NC(=O)[C@@]2(C)CCC[C@]3(C)c4cc(NC(=O)[C@@H](N)CO)ccc4CC[C@@H]23)CCC[C@]2(C)c3cc(O)ccc3CC[C@@H]12` [Compound 9j, (1S,4aS,10aR)-6-((S)-2-Amino-3-hydroxypropanamido)-N-((1S,4aS,10aR)-6-hydroxy-1,4a-dimethyl-1,2,3,4,4a,9,10,10a-octahydrophenanthrene-1-carbonyl)-1,4a-dimethyl-1,2,3,4,4a,9,10,10a-octahydrophenanthrene-1-carboxamide], the EC50 in assay [1] is not above 0.001 µM; in assay [2] (setting [6]) it was 0.00037 to 0.00209 µM; in assay [2] (setting [7]) it was 0.00046 µM; in assay [5] (THP-1, 48 h, 48-hour time point), 0.00039 µM; in assay [5] (THP-1, 48 h, 48 hours, unit inferred, values correspond to M), 0.00039 µM; in assay [5] (THP-1, 72 h, 72-hour time point), 0.00047 µM. In addition, the EC50 in assay [5] (THP-1, 72 h, 72 hours) is 0.00047 µM. Besides, the Emax in assay [1] is more than 75%. The “S/N (signal to noise, ratio of RLU of standard one over RLU of standard eight)” value in assay [2] (setting [8]) amounted to 5.7. Moreover, the IC50 in assay [3] and in assay [4] was less than 0.01 µM throughout.

Take `C[C@]1(C(=O)NC(=O)[C@@]2(C)CCC[C@]3(C)c4cc(NC(=O)[C@@H](N)Cc5c[nH]cn5)ccc4CC[C@@H]23)CCC[C@]2(C)c3cc(O)ccc3CC[C@@H]12` [Compound 9m, (1S,4aS,10aR)—N-[(1S,4aS,10aR)-6-Hydroxy-1,4a-dimethyl-1,2,3,4,4a,9,10,10a-octahydrophenanthrene-1-carbonyl]-6-[(2S)-2-amino-3-(1H-imidazol-4-yl)propanamido]-1,4a-dimethyl-1,2,3,4,4a,9,10,10a-octahydrophenanthrene-1-carboxamide; trifluoroacetic acid salt]: the EC50 in assay [1] lay within 0.001 to 0.01 µM. In assay [1], the Emax was more than 75%. Further, the IC50 was 0.01 to 0.1 µM in assay [3] and less than 0.01 µM in assay [4].

`C[C@]1(C(=O)NC(=O)[C@@]2(C)CCC[C@]3(C)c4cc(NC(=O)CCCC(=O)O)ccc4CC[C@@H]23)CCC[C@]2(C)c3cc(O)ccc3CC[C@@H]12` [Compound 9q, 4-{[(4bS,8S,8aR)-8-{[(1S,4aS,10aR)-6-Hydroxy-1,4a-dimethyl-1,2,3,4,4a,9,10,10a-octahydrophenanthrene-1-carbonyl]carbamoyl}-4b,8-dimethyl-4b,5,6,7,8,8a,9,10-octahydrophenanthren-3-yl]carbamoyl}butanoic Acid]: in assay [1], the EC50 lay in the range of 0.01 to 0.1 µM and the Emax was more than 75%. Further, the concentration for half-maximal inhibition (IC50) in assay [3] was less than 0.01 µM. Besides, in assay [4], the IC50 is less than 0.01 µM.

In the case of `O=C(O)Cc1cccc(OCCCN(Cc2cccc(C(F)(F)F)c2Cl)CC(c2ccccc2)c2ccccc2)c1` [GW3965], in assay [1], the EC50 was more than 0.1 µM and the Emax is more than 75%. The IC50 in assay [3] is less than 0.01 µM. Also, the IC50 in assay [4] is less than 0.01 µM.

On to `C[C@]1(C(=O)NC(=O)[C@@]2(C)CCC[C@]3(C)c4cc(OCCN)ccc4CC[C@@H]23)CCC[C@]2(C)c3cc(O)ccc3CC[C@@H]12` [Compound 9c, (1S,4aS,10aR)-6-(2-Aminoethoxy)-N-((1S,4aS,10aR)-6-hydroxy-1,4a-dimethyl-1,2,3,4,4a,9,10,10a-octahydrophenanthrene-1-carbonyl)-1,4a-dimethyl-1,2,3,4,4a,9,10,10a-octahydrophenanthrene-1-carboxamide], for which, in assay [1], the EC50 is 0.01 to 0.1 µM and the Emax was more than 75%. In addition, the IC50 in assay [3] fell in the range of 0.01 to 0.1 µM. Further, the IC50 in assay [4] is less than 0.01 µM.

As for `C[C@]1(C(=O)NC(=O)[C@@]2(C)CCC[C@]3(C)c4cc(NC(=O)[C@@H](N)CCCCN)ccc4CC[C@@H]23)CCC[C@]2(C)c3cc(O)ccc3CC[C@@H]12` [Compound 9l, (1S,4aS,10aR)—N-[(1S,4aS,10aR)-6-Hydroxy-1,4a-dimethyl-1,2,3,4,4a,9,10,10a-octahydrophenanthrene-1-carbonyl]-6-[(2S)-2,6-diaminohexanamido]-1,4a-dimethyl-1,2,3,4,4a,9,10,10a-octahydrophenanthrene-1-carboxamide; Trifluoroacetic Acid Salt], the results for the EC50 in assay [1], in assay [2] (setting [6]) and in assay [2] (setting [7]) were 0.001 to 0.01 µM, 0.00037 to 0.00209 µM and 0.00209 µM, respectively. Moreover, the Emax in assay [1] was more than 75%. For the same compound, in assay [2] (setting [8]), the “S/N (signal to noise, ratio of RLU of standard one over RLU of standard eight)” value is on record as 8.9. Moreover, the concentration for half-maximal inhibition (IC50) in assay [3] and in assay [4] was 0.01 to 0.1 µM throughout.

A word on the IC50: it is the concentration that inhibits the measured activity by half.

Values taken from patent publication US12338199B2, “Bis-octahydrophenanthrene carboxamides and protein conjugates thereof” (REGENERON PHARMACEUTICALS, INC., priority 2017, dated 2025).
